From patent publication US8765779B2, “Tricyclic derivatives and their pharmaceutical use and compositions” (Cephalon, Inc., priority 2009, dated 2014) come the findings set out here.

Counter-ions that a name gives are not always drawn. Like-named read-outs stand apart in the source and are kept apart here.

The target in this assay is T1, human 5-HT6 receptor (Homo sapiens, UniProt P50406).
T1 construct: host or cells: CHO-K1 cells, stably transfected; membranes prepared in house
The experiment in a line: Human 5-HT6 Receptor Binding Assay ([3H]LSD displacement, scintillation beads). As to conditions: membranes of CHO-K1 cells with recombinant human 5-HT6, 4 nM [3H]LSD, read-out: h5-HT6 (Ki).

T1 sequence (P50406 whole entry): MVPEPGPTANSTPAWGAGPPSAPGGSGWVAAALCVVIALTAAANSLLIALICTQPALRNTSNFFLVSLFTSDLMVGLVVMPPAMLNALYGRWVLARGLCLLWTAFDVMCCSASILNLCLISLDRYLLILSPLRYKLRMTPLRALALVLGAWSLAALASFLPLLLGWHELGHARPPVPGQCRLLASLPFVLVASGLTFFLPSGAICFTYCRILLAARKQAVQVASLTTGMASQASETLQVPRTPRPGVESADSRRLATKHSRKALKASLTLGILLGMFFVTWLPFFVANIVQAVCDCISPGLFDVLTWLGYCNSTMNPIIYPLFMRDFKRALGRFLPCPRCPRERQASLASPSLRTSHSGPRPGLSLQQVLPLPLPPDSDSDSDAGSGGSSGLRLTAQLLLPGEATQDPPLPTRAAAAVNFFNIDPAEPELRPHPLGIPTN

In general, Ki refers to the dissociation constant of the complex between target and ligand, obtained from inhibition or displacement. Turning to `CC1(C)CNCc2oc3cc(S(=O)(=O)c4cncc(Cl)c4)ccc3c21` [Example 452], the Ki (Table 1, class symbols) is less than 500 nM.
In the case of `COCC1NCCc2c1oc1cc(S(=O)(=O)c3cccc(Cl)c3)ccc21` (centres unmarked) [Example 502], the Ki (Table 1, class symbols) was less than 500 nM.
Take `CC12CCNCC1Oc1cc(S(=O)(=O)c3cccc(F)c3)ccc12` (racemic) [Example 11, 7-[(3-fluorophenyl)sulfonyl]-4a-methyl-1,2,3,4,4a,9a-hexahydro[1]benzofuro[2,3-c]pyridine]: where the note is “Table 1, class symbols”, the Ki is less than 500 nM.
Still for that read-out and setting: to `CC12CCNCC1Oc1ccc(S(=O)(=O)c3ccccc3)cc12` (centres unmarked) [Example 62, 4a-Methyl-6-(phenylsulfonyl)-1,2,3,4,4a,9a-hexahydro[1]benzofuro[2,3-c]pyridine hydrochloride] belongs greater than 1000 nM.
Same read-out and setting: to `[O-][S+](c1ccc2c(c1)OC1CNCCC21)c1cccnc1Cl` (centres unmarked) [Example 389] belongs greater than 1000 nM.
On the same count and under the same terms, as for `Cn1cnc(S(=O)(=O)Oc2ccc3c(c2)OC2CNCCC32)c1` (centres unmarked) [Example 639], the figure is greater than 1000 nM.
Turning to “1,2,3,4,4a,9a-hexahydro[1]benzofuro[2,3-c]pyridin-7-yl naphthalene-2-sulfonate [Example 660]”, the Ki is less than 500 nM (Table 1, class symbols) and 11.4 nM (specific data).
For `COc1cc(S(=O)(=O)c2ccc3c4c(oc3c2)CNCC4(C)C)c[n+]([O-])c1` [Example 450], the inhibitory constant (Ki) (Table 1, class symbols) was greater than 1000 nM.
Regarding `Cc1cccc(S(=O)(=O)c2ccc3c(c2)OC2CNCCC32C)n1` (racemic) [Example 6, 4a-methyl-7-[(6-methylpyridin-2-yl)sulfonyl]-1,2,3,4,4a,9a-hexahydro[1]benzofuro[2,3-c]pyridine], the Ki (Table 1, class symbols) was greater than 1000 nM.
On the same count and under the same terms, as for `CC(C)CN1CCc2c(oc3cc(S(=O)(=O)c4ccccc4)ccc23)C1` [Example 593], the figure is less than 500 nM; as for `Cc1cc(C)c(S(=O)(=O)Oc2ccc3c(c2)OC2CNCCC32)c(C)c1` (centres unmarked) [Example 656], less than 500 nM; as for `O=S(=O)(c1cncc(F)c1)c1ccc2c(c1)OC1CNCCC21` (centres unmarked) [Example 397], greater than 1000 nM.
Same read-out and setting: as for `CC1OCCC12NCCc1c2oc2cc(S(=O)(=O)c3cccc(F)c3)ccc12` (single isomer, unassigned) [Example 56, 7-[(3-Fluorophenyl)sulfonyl]-2′-methyl-3,4,4′,5′-tetrahydro-2H-spiro[1-benzofuro[2,3-c]pyridine-1,3′-furan]], the figure is less than 500 nM; as for `[O-][S+](c1ccc2oc3c(c2c1)CCNC3)c1cccnc1Cl` (centres unmarked) [Example 445], greater than 1000 nM; as for `COc1cccc(S(=O)(=O)Oc2ccc3c(c2)C2(C)CCNCC2O3)c1` (centres unmarked) [Example 761], greater than 1000 nM.
On to `O=S(=O)(Oc1ccc2c(c1)C1CCNCC1O2)c1ccccc1` (centres unmarked) [Example 696], for which, where the note is “Table 1, class symbols”, the Ki is greater than 1000 nM.
As to `O=S(=O)(c1ccc2c(c1)OC1CNCCC21)c1cccnc1C(F)(F)F` (centres unmarked) [Example 410], the Ki (Table 1, class symbols) was 500 to 1000 nM.
Still for that read-out and setting: as for `Nc1cccc(S(=O)(=O)c2ccc3oc4c(c3c2)CCNC4)c1` [Example 349], the figure is less than 500 nM.
The same measure, in the same setting: as for `CC1(C)NCCc2c1oc1cc(S(=O)(=O)c3ccc(F)c(Cl)c3)ccc21` [Example 18, 7-[(3-chloro-4-fluorophenyl)sulfonyl]-1,1-dimethyl-1,2,3,4-tetrahydro[1]benzofuro[2,3-c]pyridine], the figure is less than 500 nM.
`O=S(=O)(c1ccc2c(c1)C1CCNCC1O2)N1CCN(c2ccccc2)CC1` (centres unmarked) [Example 845]: where the note is “Table 1, class symbols”, the Ki is greater than 1000 nM.
Same read-out and setting: as for `O=S(=O)(c1ccc2c3c(oc2c1)CNCC3)c1c(F)c(F)cc(F)c1F` [Example 225], the figure is less than 500 nM; as for `[O-][S+](c1ccc2oc3c(c2c1)CCNC3)c1cccnc1OCC(F)(F)F` (centres unmarked) [Example 447], greater than 1000 nM; as for `O=S(=O)(Oc1ccc2c(c1)OC1CNCCC21)c1cccc(Cl)c1Cl` (centres unmarked) [Example 678], less than 500 nM.
Still for that read-out and setting: to `O=S(=O)(Oc1ccc2c(c1)C1CCNCC1O2)c1ccc(Cl)c(Cl)c1` (centres unmarked) [Example 738] belongs less than 500 nM; to `O=S(=O)(c1cc(F)cc(OCC(F)(F)F)c1)c1ccc2c(c1)OC1CNCCC21` (centres unmarked) [Example 415], less than 500 nM.
On the same count and under the same terms, as for `CC(=O)NCC1(C)NCCc2c1oc1cc(S(=O)(=O)c3cccc(F)c3)ccc21` (centres unmarked) [Example 631, N-({7-[(3-fluorophenyl)sulfonyl]-1-methyl-1,2,3,4-tetrahydro[1]benzofuro[2,3-c]pyridin-1-yl}methyl)acetamide], the figure is less than 500 nM; as for `CC12CCNCC1Oc1cc(S(=O)(=O)c3cccc(C(F)(F)F)c3)ccc12` (centres unmarked) [Example 357], less than 500 nM; as for `O=S(=O)(c1cc[n+]([O-])cc1)c1ccc2c(c1)OC1CNCCC21` (centres unmarked) [Example 329], greater than 1000 nM.
In the case of `O=S(=O)(c1ccc2oc3c(c2c1)CCNC3)c1ccccc1F` [Example 277], the Ki (Table 1, class symbols) was less than 500 nM.
`CC12CCNCC1Oc1ccc(OS(=O)(=O)Cc3ccc(F)cc3F)cc12` (centres unmarked) [Example 787]: the Ki (Table 1, class symbols) is greater than 1000 nM.
Still for that read-out and setting: to `CC(C)c1ccc(S(=O)(=O)Oc2ccc3c(c2)C2(C)CCNCC2O3)cc1` (centres unmarked) [Example 766] belongs 500 to 1000 nM.
Same read-out and setting: as for `O=S(=O)(c1ccc2c(c1)OC1CNCCC21)c1cccc2c1OC(F)(F)O2` (centres unmarked) [Example 461], the figure is less than 500 nM; as for `O=S(=O)(c1cccc(Cl)c1)c1ccc2c(c1)C1CCNCC1O2` (centres unmarked) [Example 294, 6-[(3-Chlorophenyl)sulfonyl]-1,2,3,4,4a,9a-hexahydro[1]benzofuro[2,3-c]pyridine trifluoroacetic acid salt], less than 500 nM.
On the same count and under the same terms, to `O=S(=O)(c1ccc(-c2ccccc2)cc1)c1ccc2c3c(oc2c1)CNCC3` [Example 228] belongs 500 to 1000 nM.
On to `CC1OCCC12NCCc1c2oc2cc(S(=O)(=O)c3cccc(F)c3)ccc12` (single isomer, unassigned) [Example 61, 7-[(3-Fluorophenyl)sulfonyl]-2′-methyl-3,4,4′,5′-tetrahydro-2H-spiro[1-benzofuro[2,3-c]pyridine-1,3′-furan]], for which the Ki (Table 1, class symbols) is less than 500 nM.
On the same count and under the same terms, to `O=S(=O)(c1ccccc1)c1ccc2c3c(oc2c1)[C@]1(CCOC1)NCC3` (single isomer, unassigned) [Example 110] belongs less than 500 nM; to `CC1NCCc2c1oc1cc(S(=O)(=O)c3ccc(F)c(F)c3)ccc21` (centres unmarked) [Example 238], less than 500 nM; to `Cc1cc(C)cc(S(=O)(=O)Oc2ccc3c(c2)C2CCNCC2O3)c1` (centres unmarked) [Example 705], less than 500 nM.
The same measure, in the same setting: as for `O=S(=O)(c1ccc2c(c1)OC1CNCCC21)c1ccccc1OCC(F)(F)F` (centres unmarked) [Example 408], the figure is less than 500 nM; as for `CC1(C)NCCc2c1oc1cc(S(=O)(=O)c3c[nH]c(=O)c(C(F)(F)F)c3)ccc21` [Example 377], greater than 1000 nM.
Still for that read-out and setting: to `O=S(=O)(Oc1ccc2c(c1)OC1CNCCC21)c1cc2ccccc2s1` (centres unmarked) [Example 664] belongs less than 500 nM.
Regarding `O=S(=O)(Nc1ccccc1)c1ccc2c(c1)C1CCNCC1O2` (centres unmarked) [Example 848], the Ki (Table 1, class symbols) is greater than 1000 nM.
The same measure, in the same setting: as for `O=S(=O)(c1ccc(C(F)(F)F)cc1)c1ccc2oc3c(c2c1)CCNC3` [Example 278], the figure is less than 500 nM; as for `O=S(=O)(c1ccccc1)c1ccc2c3c(oc2c1)CNCC3` [Example 339, 7-(phenylsulfonyl)-1,2,3,4-tetrahydro[1]benzofuro[2,3-c]pyridine], less than 500 nM; as for `CC12CCNCC1Oc1ccc(OS(=O)(=O)c3ccc4c(c3)OCCO4)cc12` (centres unmarked) [Example 775], less than 500 nM.
On the same count and under the same terms, to `CC(C)(C)c1ccc(S(=O)(=O)Oc2ccc3c(c2)C2CCNCC2O3)cc1` (centres unmarked) [Example 727] belongs 500 to 1000 nM; to `O=S(=O)(Oc1ccc2c(c1)C1CCNCC1O2)c1ccc(F)cc1` (centres unmarked) [Example 702], greater than 1000 nM; to `O=S(=O)(Oc1ccc2c(c1)C1CCNCC1O2)c1cc2ccccc2o1` (centres unmarked) [Example 714], less than 500 nM.
Same read-out and setting: to `O=S(=O)(c1cccc(Cl)c1)c1ccc2c3c(oc2c1)CNCC3` [Example 340, 7-[(3-chlorophenyl)sulfonyl]-1,2,3,4-tetrahydro[1]benzofuro[2,3-c]pyridine] belongs less than 500 nM.
`CN(C)C(=O)CC1(C)NCCc2c1oc1cc(S(=O)(=O)c3cccc(F)c3)ccc21` (single isomer, unassigned) [Example 51, 2-{7-[(3-fluorophenyl)sulfonyl]-1-methyl-1,2,3,4-tetrahydro[1]benzofuro[2,3-c]pyridin-1-yl}-N,N-dimethylacetamide]: the Ki (Table 1, class symbols) was less than 500 nM.
As for `O=S(=O)(c1ccc2c(c1)C1CCNCC1O2)N1CCC2(CC1)OCc1ccccc12` (centres unmarked) [Example 862], for the setting “Table 1, class symbols”, the Ki was greater than 1000 nM.
Take `COc1cccc(S(=O)(=O)c2ccc3c4c(oc3c2)C(C)(C)NCC4)c1` [Example 16, 7-[(3-methoxyphenyl)sulfonyl]-1,1-dimethyl-1,2,3,4-tetrahydro[1]benzofuro[2,3-c]pyridine]: the Ki (Table 1, class symbols) was less than 500 nM.
On the same count and under the same terms, as for `CC(C)c1ccc(S(=O)(=O)Oc2ccc3c(c2)OC2CNCCC32)cc1` (centres unmarked) [Example 795], the figure is less than 500 nM; as for `O=S(=O)(c1ccc(Cl)c(C(F)(F)F)c1)c1ccc2oc3c(c2c1)CCNC3` [Example 257], less than 500 nM; as for `Cc1ccc(C)c(S(=O)(=O)Oc2ccc3c(c2)OC2CNCCC32)c1` (centres unmarked) [Example 647], less than 500 nM.
Same read-out and setting: to `Cc1ccc(S(=O)(=O)c2ccc3c(c2)OC2CNCCC32)cc1` (centres unmarked) [Example 121] belongs less than 500 nM; to `O=S(=O)(c1ccc2c(c1)OC1CNCCC21)c1cc(F)cc(F)c1F` (centres unmarked) [Example 400], less than 500 nM.
Turning to `O=S(=O)(c1cccc(OCC2CCCO2)c1)c1ccc2c(c1)OC1CNCCC21` (centres unmarked) [Example 577], the Ki (Table 1, class symbols) is less than 500 nM.
Still for that read-out and setting: to `O=S(=O)(c1cccc(F)c1)c1ccc2c3c(oc2c1)C1(CCOC1)NCC3` (single isomer, unassigned) [Example 52, 7-[(3-fluorophenyl)sulfonyl]-3,4,4′,5′-tetrahydro-2H-spiro[1-benzofuro[2,3-c]pyridine-1,3′-furan]] belongs less than 500 nM; to `O=S(=O)(Oc1ccc2c(c1)OC1CNCCC21)c1cc(Cl)cc(Cl)c1` (centres unmarked) [Example 677], less than 500 nM; to `O=S(=O)(c1ccc(Cl)c(C(F)(F)F)c1)c1ccc2c3c(oc2c1)CNCC3` [Example 210], less than 500 nM.
